Laboratory results taken from patent US7259004B1, “Endophytic streptomycetes from higher plants with biological activity” (Montana State University, priority 2002, dated 2007).

Experiments:
E. faecalis 29212 = experiment: microbroth dilution MIC; format: cell-based, Enterococcus faecalis
[1] = system: Streptococcus pneumoniae 49619; experiment: microbroth dilution MIC; format: cell-based
[2] = system: Candida albicans ATCC 24433; experiment: disk diffusion assay; format: cell-based; settings: 10 micrograms per disk; 35° C. Further: key: R = resistant.
GISA 700699 = experiment: microbroth dilution MIC
S. epidermis ATCC 12228 = experiment: disk diffusion assay; format: cell-based, Staphylococcus epidermidis; settings: 10 micrograms per disk; 35° C.
Bacillus subtilis = experiment: microbroth dilution MIC
Bacillus anthracis K8902 = format: cell-based; settings: 10 micrograms per disk; ciprofloxacin 5, vancomycin 30 micrograms per disk; 35° C.
[3] = system: Enterococcus faecalis ATCC 51299; experiment: disk diffusion assay; format: cell-based; settings: 10 micrograms per disk; ciprofloxacin 5, vancomycin 30 micrograms per disk; 35° C.
[4] = system: Streptococcus pneumoniae 700674; experiment: microbroth dilution MIC
[5] = system: Candida parasilosis ATCC 22019; experiment: disk diffusion assay; format: cell-based, Candida parapsilosis; settings: 10 micrograms per disk; 35° C. Further: key: R = resistant.
[6] = system: Enterococcus faecalis ATCC 51299 (VRE); experiment: microbroth dilution MIC; format: cell-based
[7] = system: M. tuberculosis H37Rv (ATCC 25618) (drug sensitive); experiment: IC50 in Mycobacteria 7H11 agar; format: cell-based, Mycobacterium tuberculosis; settings: 7H11 agar with 10% OADC
B. subtilis 1A757 = experiment: microbe, parasite or virus in culture; format: cell-based, Bacillus subtilis
[8] = system: Listeria monocytogenes 19114; experiment: microbroth dilution MIC; format: cell-based
S. epidermis 12228 = experiment: microbroth dilution MIC; format: cell-based, Staphylococcus epidermidis
[9] = system: Staphylococcus aureus ATCC 33591 (MRSA); experiment: microbroth dilution MIC; format: cell-based
[10] = system: Candida glabrata ATCC 2001; experiment: disk diffusion assay; format: cell-based; settings: 10 micrograms per disk; 35° C. Further: key: R = resistant.
[11] = system: Candida tropicalis ATCC 750; experiment: disk diffusion assay; format: cell-based; settings: 10 micrograms per disk; 35° C. Further: key: R = resistant.
[12] = system: Staphylococccus simulans 11631; experiment: microbroth dilution MIC; format: cell-based, Staphylococcus simulans
[13] = system: Enterococcus faecium ATCC 49624; experiment: disk diffusion assay; format: cell-based; settings: 10 micrograms per disk; ciprofloxacin 5, vancomycin 30 micrograms per disk; 35° C.
S. aureus 29213 = experiment: microbroth dilution MIC; format: cell-based, Staphylococcus aureus
[14] = system: Listeria monocytogenes 19115; experiment: microbroth dilution MIC; format: cell-based
[15] = system: Candida parasdosis ATCC 90018; experiment: disk diffusion assay; format: cell-based, Candida parapsilosis; settings: 10 micrograms per disk; 35° C. Further: key: R = resistant.
[16] = system: Staphylococccus aureus 27734; experiment: microbroth dilution MIC; format: cell-based, Staphylococcus aureus
[17] = system: Saccharomyces cerevisiae ATCC 9763; experiment: disk diffusion assay; format: cell-based; settings: 10 micrograms per disk; 35° C. Further: key: R = resistant.
[18] = system: Acinetobacter sp. ATCC 49137; experiment: disk diffusion assay; format: cell-based; settings: 10 micrograms per disk; ciprofloxacin 5, vancomycin 30 micrograms per disk; grown at 30° C.
[19] = system: Shigella dysenteriae ATCC 11835; experiment: disk diffusion assay; format: cell-based; settings: 10 micrograms per disk; 35° C.
[20] = system: Streptococcus pneumoniae 700676; experiment: microbroth dilution MIC
[21] = system: Enterococcus faecalis ATCC 29212; experiment: disk diffusion assay; format: cell-based; settings: 10 micrograms per disk; ciprofloxacin 5, vancomycin 30 micrograms per disk; 35° C.
[22] = system: Cryptococcus neoformans ATCC 32045; experiment: disk diffusion assay; format: cell-based; settings: 10 micrograms per disk; 35° C.
[23] = system: Escherichia coli ATCC 25922; experiment: disk diffusion assay; format: cell-based; settings: 10 micrograms per disk; penicillin G 10 units per disk; 35° C. Further: key: R = resistant.
Candida krusei ATCC 6258 = experiment: disk diffusion assay; format: cell-based; settings: 10 micrograms per disk; 35° C.
E. faecium 49624 = experiment: microbroth dilution MIC; format: cell-based, Enterococcus faecium
Bacillus cereus 4342 = experiment: microbroth dilution MIC; format: cell-based
[24] = system: Streptococcus pneumoniae ATCC 49619; experiment: disk diffusion assay; format: cell-based; settings: 10 micrograms per disk; ciprofloxacin 5, vancomycin 30 micrograms per disk; MHA with 5% dsb. and 5% CO2
[25] = system: Candida albicans ATCC 90028; experiment: disk diffusion assay; format: cell-based; settings: 10 micrograms per disk; 35° C. Further: key: R = resistant.
Vibrio fischeri PIC 345 = experiment: disk diffusion assay; format: cell-based; settings: 10 micrograms per disk; ciprofloxacin 5, vancomycin 30 micrograms per disk; 35° C.
[26] = system: Neisseria gonnorhea ATCC 49226; experiment: disk diffusion assay; format: cell-based; settings: 10 micrograms per disk; ciprofloxacin 5, vancomycin 30 micrograms per disk; GC agar with 1% growth supplement with 5% CO2

munumbicin B
MIC E. faecalis 29212 (E. faecalis 29212): 0.25 micrograms/ml
MIC Streptococcus pneumoniae 49619 [1]: 0.5 micrograms/ml
diameter of the zone of inhibition, Candida albicans ATCC 24433 [2]: R
MIC GISA 700699 (GISA 700699): 2 micrograms/ml
diameter of the zone of inhibition, S. epidermis ATCC 12228 (S. epidermis ATCC 12228): 21 mm
MIC Bacillus subtilis (Bacillus subtilis; first listing in Table 4): 8 micrograms/ml
MIC Bacillus subtilis (Bacillus subtilis; second listing in Table 4): 2 micrograms/ml
diameter of the zone of inhibition, Bacillus anthracis K8902 (Bacillus anthracis K8902): 18 mm
diameter of the zone of inhibition, Enterococcus faecalis ATCC 51299 [3]: 23 mm
MIC Streptococcus pneumoniae 700674 [4]: 0.5 micrograms/ml
diameter of the zone of inhibition, Candida parasilosis ATCC 22019 [5]: R
MIC Enterococcus faecalis ATCC 51299 ([6]; resistant to vancomycin, first listing in Table 4): 12.5 micrograms/ml
MIC E. faecalis 51299 ([6]; second listing in Table 4): 8 micrograms/ml
MIC E. faecalis VRE 51299 ([6]; third listing in Table 4): 0.5 micrograms/ml
IC50 M. tuberculosis H37Rv (ATCC 25618) (drug sensitive) [7]: 46 micrograms/ml
increase of MICs when DNA was added (B. subtilis 1A757; Bacillus subtilis and Staphylococcus aureus, 20 micrograms per well sheared salmon sperm DNA): affected
MIC B. subtilis 1A757 (B. subtilis 1A757; DNA +, 20 micrograms per well of sheared salmon sperm DNA): >32 micrograms/ml
1×MIC against Bacillus subtilis (B. subtilis 1A757; concentration used in macromolecular synthesis assay): 2 micrograms/ml
MIC Listeria monocytogenes 19114 [8]: 4 micrograms/ml
MIC S. epidermis 12228 (S. epidermis 12228): 1 micrograms/ml
MIC Staphylococcus aureus ATCC 33591 ([9]; methicillin resistant strain, first listing in Table 4): 2.5 micrograms/ml
MIC MRSA 33591 ([9]; second listing in Table 4): 0.5 micrograms/ml
diameter of the zone of inhibition, Candida glabrata ATCC 2001 [10]: R
diameter of the zone of inhibition, Candida tropicalis ATCC 750 [11]: R
MIC Staphylococccus simulans 11631 [12]: 1 micrograms/ml
diameter of the zone of inhibition, Enterococcus faecium ATCC 49624 [13]: 21 mm
MIC S. aureus 29213 (S. aureus 29213): 0.5 micrograms/ml
MIC Listeria monocytogenes 19115 [14]: 4 micrograms/ml
diameter of the zone of inhibition, Candida parasdosis ATCC 90018 [15]: R
MIC Staphylococccus aureus 27734 [16]: 0.5 micrograms/ml
diameter of the zone of inhibition, Saccharomyces cerevisiae ATCC 9763 [17]: R
diameter of the zone of inhibition, Acinetobacter sp. ATCC 49137 [18]: R
diameter of the zone of inhibition, Shigella dysenteriae ATCC 11835 [19]: R
MIC Streptococcus pneumoniae 700676 [20]: 0.5 micrograms/ml
diameter of the zone of inhibition, Enterococcus faecalis ATCC 29212 [21]: 18 mm
diameter of the zone of inhibition, Cryptococcus neoformans ATCC 32045 [22]: 12 mm
diameter of the zone of inhibition, Escherichia coli ATCC 25922 [23]: R
diameter of the zone of inhibition, Candida krusei ATCC 6258 (Candida krusei ATCC 6258): R
MIC E. faecium 49624 (E. faecium 49624): 0.5 micrograms/ml
MIC Bacillus cereus 4342 (Bacillus cereus 4342): 0.5 micrograms/ml
diameter of the zone of inhibition, Streptococcus pneumoniae ATCC 49619 [24]: 17 mm
diameter of the zone of inhibition, Candida albicans ATCC 90028 [25]: R
diameter of the zone of inhibition, Vibrio fischeri PIC 345 (Vibrio fischeri PIC 345): 16 mm
diameter of the zone of inhibition, Neisseria gonnorhea ATCC 49226 [26]: 14 mm
